According to US20070281909A1, “Creatine phosphate prodrugs, compositions and uses thereof” (XenoPort, Inc., priority 2006, published 2007):
Like-named read-outs stand apart in the source and are kept apart here.

How the values were obtained:
[1] = cited from earlier work
[2] = tested on: HEK cells expressing SMVT; experiment: Effect of treatment on the creatine kinase system (intracellular creatine phosphate, ATP, creatine); assay type: cell-based, human; conditions: 100 μM, relative to buffer
H9C2 cells = assay type: cell-based, rat
HEK293 cells = experiment: Restoration of cellular energy homeostasis following sodium azide treatment; assay type: cell-based, human; conditions: azide 20 minutes, then compound or control media 20 minutes; FIG. 12
[3] = cited from earlier work; remark: listed apart in the source
[4] = healthy volunteers, oral creatine administration; cited from earlier work
[5] = animals fed a diet containing up to 1%; cited from earlier work

Structure (SMILES) | Adverse side effects ([1]; patients with cardiac diseases, intravenous injection up to 8 gm/day) | Percent Increase in Intracellular Concentrations, ATP ([2]; After 1 Hour) | Percent Increase in Intracellular Concentrations, Creatine ([2]; After 1 Hour) | Percent Increase in Intracellular Concentrations, Creatine Phosphate ([2]; After 1 Hour) | Percent Increase in Intracellular Concentrations, ATP ([2]; After 3 Hours) | Percent Increase in Intracellular Concentrations, Creatine ([2]; After 3 Hours) | Percent Increase in Intracellular Concentrations, Creatine Phosphate ([2]; After 3 Hours) | Protection against 3-NP toxicity (ATP luminescence) (H9C2 cells) | Reversal of azide-induced ATP depletion (HEK293 cells) | Duration of increases in tissue creatine phosphate levels ([3]; following oral creatine supplementation) | Overall increase in creatine phosphate levels by creatine supplementation ([3]; supplementation typically takes weeks) | Increase of cerebral creatine phosphate [4] | Adverse effects [5] | Adverse side effects ([1]; athletes and body builders, 2-3 gm/day)
CN(CC(=O)O)C(=N)NP(=O)(O)O [Creatine Phosphate, creatine phosphate] | without adverse side effects | 27% | −6% | 15% | 10% | 0% | 5% |  |  |  |  |  |  | 
CN(CC(=O)O)C(=N)N [Creatine, creatine] |  | 5% | 8% | 26% | −5% | 40% | 30% | not | not protective | > 14 days | < 50% | about 10% |  | 
NC1=NCCN1CC(=O)O [cyclocreatine] |  |  |  |  |  |  |  |  |  |  |  |  | do not exhibit adverse effects | 
CN(CC(=O)O)C(=N)N.O [creatine monohydrate] |  |  |  |  |  |  |  |  |  |  |  |  |  | without adverse side effects
